The values below come from patent US6984649B1, “Pyridine derivatives” (Bayer Aktiengesellschaft, priority 2000, dated 2006).

The first assay relates to A549 human lung epithelium cell line. Briefly: RANTES production in response to TNF-α from A549 cells. The assay is classed as cell-based. To be noted: A549 cells, 100 ng/ml TNF-α, read-out: Cellular activity grade (A549) (Cellular IC50). Put shortly:
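RANTES released into supernatant was measured by DELFIA-type sandwich immunoassay, Eu-labelled detection antibody, 340 nm excitation/615 nm emission, recombinant RANTES standard. Beforehand, cells seeded at 4×10^4/well received test compound (1% DMSO) for 1 h at 37 °C, followed by 24 h TNF-α (100 ng/ml) stimulation.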
As to `N#Cc1c(C2CCCNC2)cc(-c2c(O)cccc2OCc2ccccc2F)nc1N` (centres unmarked) [Example 2-37], the IC50 was less than 1000 nM.
On to `N#Cc1c(C2CCCNC2)cc(-c2c(O)cccc2OCc2ccc(Br)cc2)nc1N` (centres unmarked) [Example 2-39], for which the IC50 was less than 1000 nM.
Same read-out and setting: in the case of `Cc1ccc(COc2cccc(O)c2-c2cc(C3CCCNC3)c(C#N)c(N)n2)cc1` (centres unmarked) [Example 2-35] it was less than 1000 nM.
Regarding `COC(=O)c1ccc(COc2cccc(O)c2-c2cc(C3CCCNC3)c(C#N)c(N)n2)cc1` (centres unmarked) [Example 2-38], the IC50 is less than 1000 nM.
Still for that read-out and setting: in the case of `N#Cc1c(C2CCCNC2)cc(-c2c(O)cccc2OCc2ccc(C(F)(F)F)cc2)nc1N` (centres unmarked) [Example 2-36] it was less than 1000 nM.

Still in this assay, the particulars now being: Homo sapiens, A549, A549 cells, 100 ng/ml TNF-α, read-out: Cellular activity grade (A549) (Cellular IC50).
`O=C1Nc2nc(-c3c(O)cccc3OCc3ccccc3)cc(C3CCCNC3)c2CO1` (centres unmarked) [Example 18-10]: the half-inhibitory concentration (IC50) is less than 1000 nM.
On the same count and under the same terms, in the case of `COC(=O)c1ccc(COc2cccc(O)c2-c2cc(C3CCCNC3)c(C#N)c(N)n2)cc1` (centres unmarked) [Example 2-30] it was less than 1000 nM; in that of `CC(C)(C)COC(=O)NCc1c(C2CCCNC2)cc(-c2c(O)cccc2OCC2CC2)nc1N` (centres unmarked) [Example 23-10], less than 1000 nM.
As to `CCCOc1cccc(O)c1-c1cc(C2CCCNC2)c(C#N)c(N)n1` (centres unmarked) [Example 2-55], the IC50 is less than 1000 nM.
The same measure, in the same setting: in the case of `CC(C)OC(=O)NCc1c(C2CCCNC2)cc(-c2c(O)cccc2OCC2CC2)nc1N` (centres unmarked) [Example 23-08] it was less than 1000 nM; in that of `N#Cc1c(C2CCCNC2)cc(-c2c(O)cccc2OCCC(c2ccccc2)c2ccccc2)nc1N` (centres unmarked) [Example 2-46], 1000 to 10000 nM; in that of `O=C1Nc2nc(-c3ncccc3O)cc(C3CCCNC3)c2CO1` (centres unmarked) [Example 18-08], less than 1000 nM.
Same read-out and setting: in the case of `CC(C)Oc1cccc(O)c1-c1cc(C2CCCNC2)c(C#N)c(N)n1` (centres unmarked) [Example 2-54] it was less than 1000 nM.
Still for that read-out and setting: in the case of `Nc1nc(-c2c(O)cccc2OCC2CC2)cc(C2CCCNC2)c1CNC(=O)Nc1ccccc1` (centres unmarked) [Example 23-14] it was less than 1000 nM; in that of `CC(C)COC(=O)N1Cc2c(C3CCCNC3)cc(-c3c(O)cccc3OCC3CC3)nc2NC1=O` (centres unmarked) [Example 24-06], less than 1000 nM; in that of `CCCOc1cccc(O)c1-c1cc(C2CCCNC2)c2c(n1)NC(=O)OC2` (centres unmarked) [Example 18-11], less than 1000 nM.
In the case of `COc1cccc(O)c1-c1cc(C2CCCNC2)c(C#N)c(N)n1` (centres unmarked) [Example 2-57], the IC50 is less than 1000 nM.
Same read-out and setting: the figure for `Cc1ccccc1COc1cccc(O)c1-c1cc(C2CCCNC2)c(C#N)c(N)n1` (centres unmarked) [Example 2-06] is 1000 to 10000 nM.
On the same count and under the same terms, the figure for `CCCOc1cccc(O)c1-c1cc(C2CCNCC2)c2c(n1)NC(=O)OC2` [Example 18-14] is less than 1000 nM; for `CN(C)C(=O)NCc1c(C2CCCNC2)cc(-c2c(O)cccc2OCC2CC2)nc1N` (centres unmarked) [Example 23-11] it is less than 1000 nM.
Regarding `N#Cc1c(C2CCCNC2)cc(-c2c(O)cccc2OCc2ccccn2)nc1N` (centres unmarked) [Example 2-42], the IC50 fell in the range of 1000 to 10000 nM.
Still for that read-out and setting: the figure for `N#Cc1c(C2CCCNC2)cc(-c2c(O)cccc2OCc2ccccc2-c2ccccc2)nc1N` (centres unmarked) [Example 2-22] is 1000 to 10000 nM; for `O=C1Nc2nc(-c3c(O)cccc3OCc3ccccc3)cc(C3CCNCC3)c2CO1` [Example 18-16] it is 1000 to 10000 nM.
On the same count and under the same terms, the figure for `CCCCCOc1cccc(O)c1-c1cc(C2CCCNC2)c(C#N)c(N)n1` (centres unmarked) [Example 2-60] is less than 1000 nM; for `N#Cc1c(C2CCCN(CCc3ccccc3)C2)cc(-c2ccccc2O)nc1N` (centres unmarked) [Example 3-06] it is 1000 to 10000 nM; for `CC(C)(C)COc1cccc(O)c1-c1cc(C2CCCNC2)c(CO)c(N)n1` (centres unmarked) [Example 12-04] it is less than 1000 nM.
Still for that read-out and setting: in the case of `COc1ccc(CN2CCCC(c3cc(-c4c(O)cccc4O)nc(N)c3C#N)C2)cc1` (centres unmarked) [Example 3-07] it was 1000 to 10000 nM; in that of `CC(C)(C)c1ccc(COc2cccc(O)c2-c2cc(C3CCCNC3)c(C#N)c(N)n2)cc1` (centres unmarked) [Example 2-31], less than 1000 nM; in that of `NC(=O)N1Cc2c(C3CCCNC3)cc(-c3c(O)cccc3OCC3CC3)nc2NC1=O` (centres unmarked) [Example 24-10], less than 1000 nM.
For `O=C1Nc2nc(-c3c(O)cccc3OCC3CC3)cc(C3CCNCC3)c2CO1` [Example 18-13], the IC50 was less than 1000 nM.
Consider `N#Cc1c(C2CCCNC2)cc(-c2c(O)cccc2OCc2ccc(F)cc2F)nc1N` (centres unmarked) [Example 2-26], for which the 50% inhibitory concentration (IC50) was less than 1000 nM.
With `N#Cc1c(C2CCCNC2)cc(-c2c(O)cccc2OCc2ccc(-c3ccccc3)cc2)nc1N` (centres unmarked) [Example 2-33], the IC50 lay within 1000 to 10000 nM.
The same measure, in the same setting: the figure for `N#Cc1c(C2CCCN(Cc3ccccc3)C2)cc(-c2ccccc2O)nc1N` (centres unmarked) [Example 3-05] is less than 1000 nM.
Still for that read-out and setting: the figure for `CCCN1CCCC(c2cc(-c3ccccc3O)nc(N)c2C#N)C1` (centres unmarked) [Example 3-04] is 1000 to 10000 nM.
For `N#Cc1c(C2CCCNC2)cc(-c2c(O)cccc2OCc2csc3ccc(Cl)cc23)nc1N` (centres unmarked) [Example 2-47], the IC50 is 1000 to 10000 nM.
In the case of `N#Cc1c(C2CCCNC2)cc(-c2c(O)cccc2OCc2ncon2)nc1N` (centres unmarked) [Example 2-48], the IC50 was less than 1000 nM.
`CC(C)COc1cccc(O)c1-c1cc(C2CCCNC2)c(C#N)c(N)n1` (centres unmarked) [Example 2-59]: the IC50 was less than 1000 nM.
Still for that read-out and setting: the figure for `C=CCOc1cccc(O)c1-c1cc(C2CCCNC2)c(C#N)c(N)n1` (centres unmarked) [Example 2-56] is less than 1000 nM; for `N#Cc1c(C2CCNCC2)cc(-c2c(O)cccc2OCc2ccccc2)nc1N` [Example 2-23] it is 1000 to 10000 nM.
Same read-out and setting: the figure for `N#Cc1c(C2CCCNC2)cc(-c2c(O)cccc2OCc2ccccc2F)nc1N` (centres unmarked) [Example 2-25] is less than 1000 nM; for `N#Cc1c(C2CCCNC2)cc(-c2c(O)cccc2OCc2cccc(F)c2)nc1N` (centres unmarked) [Example 2-27] it is less than 1000 nM; for `CC(C)CCCOc1cccc(O)c1-c1cc(C2CCNCC2)c2c(n1)NC(=O)OC2` [Example 18-15] it is less than 1000 nM.
Same read-out and setting: the figure for `O=C1Nc2nc(-c3c(O)cccc3O)cc(C3CCNCC3)c2CO1` [Example 18-12] is more than 10000 nM; for `N#Cc1c(C2CCNCC2)cc(-c2c(O)cccc2OCCc2ccccc2)nc1N` [Example 2-52] it is less than 1000 nM; for `N#Cc1c(CCN)cc(-c2c(O)cccc2OCc2ccccc2)nc1N` [Example 2-40] it is less than 1000 nM.
For `N#Cc1c(C2CCCNC2)cc(-c2c(O)cccc2OCc2ccc(Cl)c(Cl)c2)nc1N` (centres unmarked) [Example 2-05], the IC50 lay in the range of 1000 to 10000 nM.
Same read-out and setting: the figure for `Nc1nc(-c2c(O)cccc2OCC2CC2)cc(C2CCNCC2)c1CO` [Example 12-05] is less than 1000 nM.
Still for that read-out and setting: in the case of `NC(=O)NCc1c(C2CCCNC2)cc(-c2c(O)cccc2OCC2CC2)nc1N` (centres unmarked) [Example 23-13] it was less than 1000 nM; in that of `CCCOc1cccc(O)c1-c1cc(C2CCCNC2)c(CO)c(N)n1` (centres unmarked) [Example 12-03], less than 1000 nM.
Still for that read-out and setting: the figure for `Cc1cc(COc2cccc(O)c2-c2cc(C3CCCNC3)c(C#N)c(N)n2)no1` (centres unmarked) [Example 2-49] is less than 1000 nM; for `N#Cc1c(C2CCCNC2)cc(-c2c(O)cccc2OCc2cccnc2)nc1N` (centres unmarked) [Example 2-43] it is less than 1000 nM; for `N#Cc1c(C2CCCNC2)cc(-c2c(O)cccc2OCc2ccc(F)c(F)c2)nc1N` (centres unmarked) [Example 2-29] it is 1000 to 10000 nM.
Regarding `N#Cc1c(C2CCCNC2)cc(-c2c(O)cccc2OCc2ccc3ccccc3n2)nc1N` (centres unmarked) [Example 2-45], the IC50 is less than 1000 nM.
Consider `N#Cc1c(C2CCCNC2)cc(-c2c(O)cccc2OCc2ccc(Cl)cc2Cl)nc1N` (centres unmarked) [Example 2-34], for which the IC50 fell in the range of 1000 to 10000 nM.
As for `N#Cc1c(C2CCCNC2)cc(-c2c(O)cccc2OCCc2ccccc2)nc1N` (centres unmarked) [Example 2-41], the IC50 is less than 1000 nM.
In the case of `CN(C)C(=O)N1Cc2c(C3CCCNC3)cc(-c3c(O)cccc3OCC3CC3)nc2NC1=O` (centres unmarked) [Example 24-08], the 50% inhibitory concentration (IC50) is less than 1000 nM.
Still for that read-out and setting: the figure for `CC(=O)NCc1c(C2CCCNC2)cc(-c2ccccc2O)nc1N` (centres unmarked) [Example 23-04] is less than 1000 nM; for `CCC(=O)NCc1c(C2CCCNC2)cc(-c2ccccc2O)nc1N` (centres unmarked) [Example 23-06] it is 1000 to 10000 nM; for `CCCOc1cccc(O)c1-c1cc(C2CCNCC2)c(CO)c(N)n1` [Example 12-06] it is less than 1000 nM.
`N#Cc1c(C2CCCNC2)cc(-c2c(O)cccc2OCC2CCCCC2)nc1N` (centres unmarked) [Example 2-53]: the IC50 was less than 1000 nM.
The same measure, in the same setting: in the case of `CC(C)OC(=O)N1Cc2c(C3CCCNC3)cc(-c3c(O)cccc3OCC3CC3)nc2NC1=O` (centres unmarked) [Example 24-05] it was less than 1000 nM; in that of `N#Cc1c(C2CCCNC2)cc(-c2c(O)cccc2OCc2ccncc2)nc1N` (centres unmarked) [Example 2-44], less than 1000 nM.
Same read-out and setting: in the case of `Nc1nc(-c2ccccc2O)cc(C2CCCNC2)c1CNC(=O)C1CC1` (centres unmarked) [Example 23-05] it was less than 1000 nM.
For the molecule `CC(C)COC(=O)NCc1c(C2CCCNC2)cc(-c2c(O)cccc2OCC2CC2)nc1N` (centres unmarked) [Example 23-09], the IC50 is less than 1000 nM.
Still for that read-out and setting: the figure for `N#Cc1c(C2CCCNC2)cc(-c2c(O)cccc2OCc2ccc(F)cc2)nc1N` (centres unmarked) [Example 2-28] is less than 1000 nM; for `CCCNC(=O)NCc1c(C2CCCNC2)cc(-c2c(O)cccc2OCC2CC2)nc1N` (centres unmarked) [Example 23-12] it is less than 1000 nM.
Still for that read-out and setting: the figure for `COc1ccc(CN2CCCC(c3cc(-c4c(O)cccc4OCC4CC4)nc(N)c3C#N)C2)cc1` (centres unmarked) [Example 3-08] is more than 10000 nM.
Take `O=C1Nc2nc(-c3c(O)cccc3F)cc(C3CCCNC3)c2CO1` (centres unmarked) [Example 18-07]: the IC50 is less than 1000 nM.
With `CC(=O)NCc1c(C2CCNCC2)cc(-c2c(O)cccc2OCC2CC2)nc1N` [Example 23-07], the IC50 was less than 1000 nM.
Same read-out and setting: the figure for `Cc1cc(-c2c(O)cccc2OCC2CC2)nc2c1COC(=O)N2` [Example 18-09] is less than 1000 nM; for `CC(C)CCCOc1cccc(O)c1-c1cc(C2CCNCC2)c(CO)c(N)n1` [Example 12-07] it is less than 1000 nM.
As for `Nc1nc(-c2c(O)cccc2OCc2ccccc2)cc(C2CCCNC2)c1CO` (centres unmarked) [Example 12-02], the IC50 lay within 1000 to 10000 nM.
Still for that read-out and setting: in the case of `CN1CCCC(c2cc(-c3ccccc3O)nc(N)c2C#N)C1` (centres unmarked) [Example 3-03] it was less than 1000 nM; in that of `N#Cc1c(C2CCCNC2)cc(-c2c(O)cccc2OCCCc2ccccc2)nc1N` (centres unmarked) [Example 2-50], less than 1000 nM.

For orientation: IC50 means the concentration at which inhibition is half-maximal.
